PubChem BioAssay (NCI)
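Method: 48-hour compound exposure of cells in 96-well plates, five concentrations, linear interpolation of endpoints. GI50 is the concentration that inhibits growth by half. Definition used: TGI = concentration required for complete inhibition of growth.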

How the values were obtained:
Assay in all cases: growth of human tumour cells (NCI), 48 h
[1] = test system: A498 renal
[2] = test system: A549 NSCLC
[3] = test system: ACHN renal
[4] = test system: BT-549 breast
[5] = test system: CAKI-1 renal
[6] = test system: CCRF-CEM leukemia
[7] = test system: COLO 205 colon
[8] = test system: DU-145 prostate
[9] = test system: EKVX NSCLC
[10] = test system: HCC-2998 colon
[11] = test system: HCT-116 colon
[12] = test system: HCT-15 colon
[13] = test system: HL-60(TB) leukemia
[14] = test system: HOP-92 NSCLC
[15] = test system: HS 578T breast
[16] = test system: HT29 colon
[17] = test system: IGROV1 ovarian
[18] = test system: K-562 leukemia
[19] = test system: KM12 colon
[20] = test system: LOX IMVI melanoma
[21] = test system: MDA-MB-231 breast
[22] = test system: MDA-MB-435
[23] = test system: MOLT-4 leukemia
[24] = test system: NCI-H226 lung
[25] = test system: NCI-H23 lung
[26] = test system: NCI-H460 lung
[27] = test system: NCI-H522 lung
[28] = test system: NCI/ADR-RES ovarian
[29] = test system: OVCAR-3 ovarian
[30] = test system: OVCAR-4 ovarian
[31] = test system: OVCAR-5 ovarian
[32] = test system: OVCAR-8 ovarian
[33] = test system: PC-3 prostate
[34] = test system: RPMI-8226 leukemia
[35] = test system: RXF 393 renal
[36] = test system: SF-268 CNS
[37] = test system: SF-295 CNS
[38] = test system: SF-539 CNS
[39] = test system: SK-MEL-28 melanoma
[40] = test system: SK-OV-3 ovarian
[41] = test system: SNB-75 CNS
[42] = test system: SW-620 colon
[43] = test system: TK-10 renal
[44] = test system: U251 CNS
[45] = test system: UACC-257 melanoma
[46] = test system: UACC-62 melanoma
[47] = test system: UO-31 renal

In the case of `COc1ccc2c3/c(=C\c4ccc(N(C)C)cc4)c4ccccc4n3[n+](C)c2c1`, the GI50 [1] is reported as 0.371 µM, the TGI [1] is reported as 7.37 µM and the GI50 [2] is reported as 0.236 µM. It also gave a GI50 [3] of 0.404 µM, a GI50 [4] of 0.129 µM and a TGI [4] of 2.7 µM. For the same compound, the GI50 [5] was 0.723 µM, the TGI [5] was 2.51 µM and the GI50 [6] was 0.051 µM. It also gave a TGI [6] of 2.09 µM, a GI50 [7] of 0.029 µM and a TGI [7] of 0.757 µM. It also gave a GI50 [8] of 0.236 µM, a TGI [8] of 1.81 µM and a GI50 [9] of 0.11 µM. For the same compound, the TGI [9] was 4.16 µM, the GI50 [10] was < 0.0378 µM and the TGI [10] was 0.31 µM. The GI50 [11] was 0.0533 µM, the TGI [11] was > 100 µM and the GI50 [12] was 0.475 µM. The TGI [12] was > 100 µM, the GI50 [13] was 0.051 µM and the GI50 [14] was 0.236 µM. For the same compound, the TGI [14] was 1.78 µM, the GI50 [15] was 0.162 µM and the GI50 [16] was 0.123 µM. For the same compound, the GI50 [17] was 0.24 µM, the TGI [17] was > 100 µM and the GI50 [18] was 0.0272 µM. For the same compound, the TGI [18] was > 40 µM, the GI50 [19] was 0.255 µM and the TGI [19] was 1.24 µM. The GI50 [20] was 0.094 µM, the TGI [20] was > 100 µM and the GI50 [21] was 0.0352 µM. It also gave a TGI [21] of 0.385 µM, a GI50 [22] of 0.484 µM and a TGI [22] of 1.83 µM. It also gave a GI50 [23] of 0.0944 µM, a TGI [23] of 27.9 µM and a GI50 [24] of 0.244 µM. It also gave a TGI [24] of 1.68 µM, a GI50 [25] of 0.0639 µM and a TGI [25] of 0.722 µM. For the same compound, the GI50 [26] was 0.16 µM, the TGI [26] was 28.8 µM and the GI50 [27] was 0.182 µM. The TGI [27] was > 100 µM, the GI50 [28] was 4.31 µM and the TGI [28] was > 55.8 µM. The GI50 [29] was 0.0358 µM, the TGI [29] was 0.369 µM and the GI50 [30] was 0.987 µM. It also gave a TGI [30] of 6.46 µM, a GI50 [31] of 0.472 µM and a TGI [31] of 2.22 µM. The GI50 [32] was 0.0474 µM, the TGI [32] was 2.33 µM and the GI50 [33] was 0.124 µM. The TGI [33] was 1.5 µM, the GI50 [34] was < 0.0112 µM and the TGI [34] was 0.136 µM. For the same compound, the GI50 [35] was 0.0603 µM, the TGI [35] was 1.04 µM and the GI50 [36] was 0.437 µM. For the same compound, the TGI [36] was 3.03 µM, the GI50 [37] was 0.202 µM and the GI50 [38] was 0.0409 µM. It also gave a TGI [38] of 0.748 µM, a GI50 [39] of 0.173 µM and a TGI [39] of 2.27 µM. The GI50 [40] was 1.04 µM, the TGI [40] was 2.57 µM and the GI50 [41] was 0.578 µM. For the same compound, the TGI [41] was 4.18 µM, the GI50 [42] was 0.0438 µM and the TGI [42] was > 100 µM. For the same compound, the GI50 [43] was 0.274 µM, the TGI [43] was 1.32 µM and the TGI [44] was > 100 µM. For the same compound, the GI50 [45] was 0.0346 µM, the TGI [45] was 0.424 µM and the GI50 [46] was < 0.0275 µM. For the same compound, the TGI [46] was 0.224 µM, the GI50 [47] was 0.484 µM and the TGI [47] was 1.66 µM.
